Target: Tryptase (Homo sapiens, UniProt Q9BZJ3+Q15661+Q9NRR2)
Experiment: Compound was tested for inhibition of human mast cell tryptase
Format: protein assay

Structure (SMILES)	IC50 [nM]
COc1ccc(CNC(=O)CCCC(=O)OCN2C(=O)c3ccccc3S2(=O)=O)cc1	430
O=C(CCCC(=O)OCN1C(=O)c2ccccc2S1(=O)=O)NCc1ccc(Cl)c(Cl)c1	230
